{"source": "patent US20250099485A1", "about": "“COMPOSITIONS FOR PROMOTING HAIR GROWTH” (ESTETRA SRL, priority 2021, published 2025)", "key": {"[1]": {"tested_on": "alkaline phosphatase in dermal papilla (DP)", "assay": "Hair follicle organ culture: alkaline phosphatase activity, DP inductivity", "format": "cell-based, human", "conditions": "all tested concentrations, vs vehicle", "method": "(§1) 12-44 full-length frontotemporal hair follicles (HF) were obtained from four human female donors >50 years old. Donors were caucasian female subjects […], respectively (Donor 1: 12 temporal anagen HFs; Donor 2: 29; Donor 3: 44; Donor 4: 32). After microdissection from skin as described (Edelkamp et al., Methods Mol Biol, 2020, 2154:105-119; and Langan et al., Exp Dermatol, 2015, December; 24(12):903-1), HFs were placed in adequate culture medium and allowed a 24 h rest period to allow them to recover from the trauma of microdissection. Test substance (either vehicle (0.3% EtOH) or E4 at concentrations of 30 μM, 3 μM or 300 nM) was added to the medium at the end of the 24 h. Total culturing time was 5-7 days depending on the studied parameters and the experimental question. The experimental design for the hair follicle organ culture experiment is depicted in FIG. 12. Longer term culture experiments may be used to analyze the capacity to delay the onset of catagen.\nAlkaline phosphatase is an indicator of DP inductivity (Yang, J Dermatol Sci, 2010, January; 57(1):2-11). Alkaline phosphatase in situ activity was measured in the DP."}, "[2]": {"tested_on": "Normal Human Epidermal Keratinocytes (NHEKs)", "assay": "Colonization of acellular area (IBIDI gap closure), keratinocytes", "format": "cell-based", "conditions": "6 h and 24 h contact, cell gives time of significant effect; for NHEK Proliferation & Migration (colonization of acellular area vs ethanol control): absence of MMC; for NHEK Migration (+MMC) (colonization of acellular area vs ethanol control): presence of mitomycin C", "method": "The study consists in an in vitro assay aiming to evaluate the properties of E4 and E2 at 4 concentrations each on keratinocytes and fibroblasts. In this assay, the measurement of the colonization of a standard acellular surface generated from a confluent monolayer of cells using a dedicated culture device (IBIDI chamber) is performed. The assay is performed in absence and in presence of a proliferation inhibitor to focus on cell proliferation and migration or on migration only, respectively.\nThe study was performed using cultures of Normal Human foreskin-derived Epidermal Keratinocytes (NHEKs, Lonza). The cells were grown in serum free Epilife medium (ThermoFisher Scientific) supplemented with Human Keratinocyte Growth Supplement (HKGS, ThermoFisher Scientific) and antibiotics. The cells were maintained in a humidified incubator at 37° C. with a 5% CO2 atmosphere.\nCells were plated in 2-well silicone inserts with a defined cell free gap (IBIDI chambers; IBIDI GmbH, 80209) that was previously inserted on 12-well culture plates. This culture device allows to create a standardized 500 μm±100 μm cell free gap for monitoring cell colonization. 24 h after seeding, when the culture reached high confluency, cells in the insert were treated, or not, with mitomycin C (MMC) at 10 μg/ml during 2 h. After these 2 hours, the insert was removed, and cells were treated with E2 or E4 in presence or not of MMC for additional 2 h. Then, if appropriate, the culture medium was removed and cells were treated with E2 or E4 for 22 h, in absence of MMC.\nFor the assay, keratinocytes were plated in Epilife medium without HKGS and all the treatments were performed in this medium. Fibroblasts were plated in DMEM medium containing only 2.5% of FBS and the treatments were performed in absence of FBS.\nE2 and E4 were applied at 4 concentrations each (10^−7M, 10^−8M, 10^−9M, 10^−10M). In parallel, cells were treated with a positive control (HKGS 1% for human keratinocytes and PDGF-BB at 10 ng/ml for human fibroblasts).\nTo monitor cell colonization and to evaluate the gap closure rate, pictures of the gap were taken after different times: at time 0 h, corresponding to the beginning of the treatment with E2 or E4 and to the removal of the culture insert, at time 6 h and at time 24 h (corresponding to the end of the treatments with E2 or E4). Pictures were taken with a microscope Zeiss (Axiover 25-10× objective) and with a camera Invenio2EIII (DeltaPix—Lux-Optic). The colonized areas were quantified from the pictures by the use of the WimAsis platform—WimScratch software. For each insert, 3 pictures were taken at each time. As each condition was performed in triplicates, it means a total of 9 pictures per condition and per time point of acquisition"}, "[3]": {"conditions": "female, Lister Hooded, rat, in vivo, po, 15 mg/kg, 0.5 h", "protocol": "Tissue distribution was determined in female rats (partially pigmented and non-pigmented) using [^14C]-estetrol.\nA group of six female Lister Hooded rats each received a single oral dose of [^14C]-estetrol. At each selected time (see below) one animal was killed (by overdose of CO2) followed by immediate snap freezing in hexane/solid CO2. The carcasses were retained for examination of the tissue distribution of radioactivity using the technique of quantitative whole body autoradiography (QWBA).\nTimes for analysis were: (0.5, 8, and 24 hours, 7, 14 and 35 days).\nFrozen carcasses were subjected to whole-body autoradiography.\nWhere concentrations are reported, radioactivity was assumed to be associated with [^14C]-estetrol or any metabolic products derived from [^14C]-estetrol. The specific activities of the dosed test compounds were used for the calculation of concentrations in all cases. Recoveries of radioactivity are reported as percentage of administered radioactivity (% dose). Radioactivity concentrations are also reported as μg equivalents/g."}, "human monocytes": {"tested_on": "human monocytes", "assay": "Immune cell polarization (qPCR NOS2/ARG1), human monocytes", "format": "cell-based", "conditions": "activated human monocytes, qPCR marker", "method": "Immune cell polarization was evaluated in vitro using markers for M1/TH-1 (NOS2) and M2/TH-2 (ARG1) phenotype with human monocytes and mouse monocytes (BMDM bone marrow derived monocytes).\nHuman blood was collected under national ethical approval with full informed written patient consent. Freshly isolated human blood was collected in EDTA vacutainer tubes, diluted 1:1 in PBS and gently layered onto histopaque (Merck). Tubes were immediately centrifuged at 100×g for 30 minutes and the whitish buffy layer formed at the histopaque interface aspirated and washed (centrifuged 100×g, 10 minutes) twice with sterile PBS. Untouched classical (CD14++, CD16−) monocytes were isolated from the washed buffy layer cells using the Miltenyi Classical Monocyte Isolation Kit, LS columns and a MidiMACs separator (Miltenyi). Isolated cells were seeded into tissue culture plates and stimulated to differentiate using PMA.\nAn experiment was conducted to evaluate the anti-inflammatory effects of E4 or vehicle (negative control). qPCR methodology was used to assess the effects of E2 and E4 on immune cell polarization using well validated marker of pro-inflammatory (NOS2 for MI/TH-1 phenotype) and anti-inflammatory (ARG1 for ME/TH-2 phenotype) activity."}, "DP fibroblasts": {"tested_on": "DP fibroblasts", "assay": "Hair follicle organ culture: DP fibroblast emigration", "format": "cell-based, human", "conditions": "vs vehicle", "method": "as §1\nThe DP resident fibroblasts are subjected to migration in the transition between anagen and catagen phase (Hawkshaw et al., Journ of Invest Dermatol, 2015, 135(8):2129-2132). In catagen onset, DP fibroblasts emigrate to the dermal cup through the DP stalk, whereas at anagen induction, they immigrate back in the DP. Quantifying the number of DP fibroblasts present in the DP stalk and in the DP (Kloepper et al., Exp Dermatol, 2010, March; 19(3):305-12) is therefore a direct readout for anagen induction or catagen promotion. K 15 expression—Stem cells."}}}
{"compound": "C[C@]12CC[C@@H]3c4ccc(O)cc4CC[C@H]3[C@@H]1[C@@H](O)[C@@H](O)[C@@H]2O", "note": "[E4, 1,3,5 (10)-estratrien-3,15alpha,16alpha,17beta-tetrol]", "values": [{"measurement": "alkaline phosphatase activity in DP cells", "setting": "[1]", "result": "tendentially increased"}, {"measurement": "NHEK Proliferation & Migration (colonization of acellular area vs ethanol control)", "setting": "[2]; 10^−7M", "result": "significantly increased the colonization of the acellular area"}, {"measurement": "NHEK Migration (+MMC) (colonization of acellular area vs ethanol control)", "setting": "[2]; 10^−7M", "result": "significantly increased the colonization of the acellular area"}, {"measurement": "NHEK Proliferation & Migration (colonization of acellular area vs ethanol control)", "setting": "[2]; 10^−10M", "result": "significantly increased the colonization of the acellular area"}, {"measurement": "NHEK Migration (+MMC) (colonization of acellular area vs ethanol control)", "setting": "[2]; 10^−10M", "result": "significantly increased the colonization of the acellular area"}, {"measurement": "Total amount of radioactivity in tissue, Skin (non-pigmented)", "setting": "[3]", "result": "1.1 % dose administered/tissue"}, {"measurement": "Total amount of radioactivity in tissue, Skin (pigmented)", "setting": "[3]", "result": "1.7 % dose administered/tissue"}, {"measurement": "immune cell polarization, human monocytes", "setting": "human monocytes", "result": "switch from subtype M1 (pro-inflammatory) to subtype M2 (healing)"}, {"measurement": "density of cells in the inductive dermal cup", "setting": "DP fibroblasts; 300 nM, 3 μM, 30 μM", "result": "no significant impact"}, {"measurement": "total number of cells in the DP stalk", "setting": "DP fibroblasts; 300 nM", "result": "significantly reduced"}, {"measurement": "total number of cells in the DP stalk", "setting": "DP fibroblasts; 3 μM", "result": "significantly reduced"}, {"measurement": "density of cells in the DP stalk", "setting": "DP fibroblasts; all concentrations", "result": "tendentially decreased"}, {"measurement": "density of cells in the DP", "setting": "DP fibroblasts; all tested concentrations", "result": "did not strikingly affect"}]}
